Each molecule was assayed against cortisol synthase (CYP11B1) (Macaca fascicularis, UniProt A0A2K5ULY1) (assay: Inhibition of Cortisol Synthesis). Details: cynomolgus adrenal gland mitochondria; 150 units of CYP11B1, 11-deoxycortisol as substrate, cortisol measured as product.
Format: biochemical, cynomolgus monkey
Protocol: The aldosterone synthase and cortisol synthase inhibition assays employ cynomolgus adrenal gland mitochondria as the source of aldosterone synthase (CYP11B2) and cortisol synthase (CYP11B1). […] Activity of CYP11B2 and CYP11B1 in these preparations is defined as the amount of enzyme that generates 1 pmol of product in one hour under the conditions described.
Assays are performed in 96-well format in a final volume of 60 μL/well, containing 100 mM potassium phosphate, pH 7.4, 1% (v/v) DMSO, and additionally, 2 μM of corticosterone and 50 units of CYP11B2 activity. Reactions are started by the addition of NADPH to 1 mM and allowed to proceed for 90 minutes at 37° C. Reactions are terminated by the addition of 60 μL of MeCN containing an internal standard for mass spectrometry. One hundred microliters are then transferred to a glass filter plate and centrifuged at 570×g for 5 minutes and the filtrate is collected. Reaction product aldosterone is quantified by mass spectrometry. To determine the assay blank value (0% activity), NADPH is omitted from some reactions.
Dose dependent inhibition is quantified by the inclusion of compound at various concentrations. Maximum activity (100%) is defined by reactions containing NADPH, but without compound.
Assays are performed as for aldosterone synthase except for the use of 150 units of CYP11B1, 11-deoxycortisol as substrate and cortisol measured as product.
With NC(=O)c1cccc2c1OCC(c1cncc(C3(O)CCOCC3)c1)O2 (single isomer, unassigned) [Cpd 1A, 2-[5-(4-Hydroxy-tetrahydro-pyran-4-yl)-pyridin-3-yl]-2,3-dihydro-benzo[1,4]dioxine-5-carboxylic acid amide] the IC50 was greater than 100 µM. For NC(=O)c1cccc2c1OCC(c1cncc(C3(O)CCOCC3)c1)O2 (single isomer, unassigned) [Cpd 1B, 2-[5-(4-Hydroxy-tetrahydro-pyran-4-yl)-pyridin-3-yl]-2,3-dihydro-benzo[1,4]dioxine-5-carboxylic acid amide], the IC50 was 24 µM. Molecule N#CC1(c2cncc(C3COc4c(cccc4C(N)=O)O3)c2)CC1 (single isomer, unassigned) [Cpd 2A, 2-[5-(1-Cyano-cyclopropyl)-pyridin-3-yl]-2,3-dihydro-benzo[1,4]dioxine-5-carboxylic acid amide] has an IC50 of 0.06 µM. Molecule N#CC1(c2cncc(C3COc4c(cccc4C(N)=O)O3)c2)CC1 (single isomer, unassigned) [Cpd 2B, 2-[5-(1-Cyano-cyclopropyl)-pyridin-3-yl]-2,3-dihydro-benzo[1,4]dioxine-5-carboxylic acid amide] has an IC50 of 0.23 µM. With NC(=O)c1cccc2c1OCC(c1cncc(CN3CCCCS3(=O)=O)c1)O2 (single isomer, unassigned) [Cpd 3A, 2-[5-(1,1-Dioxo-1λ^6,-[1,2]thiazinan-2-ylmethyl)-pyridin-3-yl]-2,3-dihydro-benzo[1,4]dioxine-5-carboxylic acid amide] the IC50 was greater than 30 µM. In the case of NC(=O)c1cccc2c1OCC(c1cncc(CN3CCCCS3(=O)=O)c1)O2 (single isomer, unassigned) [Cpd 3B, 2-[5-(1,1-Dioxo-1λ^6,-[1,2]thiazinan-2-ylmethyl)-pyridin-3-yl]-2,3-dihydro-benzo[1,4]dioxine-5-carboxylic acid amide], the IC50 is reported as 5.6 µM. In the case of NC(=O)c1cccc2c1OCC(c1cccnc1)O2 (single isomer, unassigned) [Cpd 4A, 2-Pyridin-3-yl-2,3-dihydro-benzo[1,4]dioxine-5-carboxylic acid amide], the IC50 is reported as 3.1 µM. For NC(=O)c1cccc2c1OCC(c1cccnc1)O2 (single isomer, unassigned) [Cpd 4B, 2-Pyridin-3-yl-2,3-dihydro-benzo[1,4]dioxine-5-carboxylic acid amide], the IC50 was 2.5 µM. NC(=O)c1cccc2c1OCC(c1cncc(CN3CCCC3=O)c1)O2 (single isomer, unassigned) [Cpd 5A, 2-[5-(2-Oxo-pyrrolidin-1-ylmethyl)-pyridin-3-yl]-2,3-dihydro-benzo[1,4]dioxine-5-carboxylic acid amide] was tested, and the IC50 was greater than 30 µM. Molecule NC(=O)c1cccc2c1OCC(c1cncc(CN3CCCC3=O)c1)O2 (single isomer, unassigned) [Cpd 5B, 2-[5-(2-Oxo-pyrrolidin-1-ylmethyl)-pyridin-3-yl]-2,3-dihydro-benzo[1,4]dioxine-5-carboxylic acid amide] has an IC50 of 22 µM. CN1C(=O)CCC1c1cncc(C2COc3c(cccc3C(N)=O)O2)c1 (single isomer, unassigned) [Cpd 6AA, 2-[5-(-1-Methyl-5-oxo-pyrrolidin-2-yl)-pyridin-3-yl]-2,3-dihydro-benzo[1,4]dioxine-5-carboxylic acid amide] showed an IC50 of 2.2 µM. CN1C(=O)CCC1c1cncc(C2COc3c(cccc3C(N)=O)O2)c1 (single isomer, unassigned) [Cpd 6AB, 2-[5-(-1-Methyl-5-oxo-pyrrolidin-2-yl)-pyridin-3-yl]-2,3-dihydro-benzo[1,4]dioxine-5-carboxylic acid amide] showed an IC50 of 10 µM. Work on CN1C(=O)CCC1c1cncc(C2COc3c(cccc3C(N)=O)O2)c1 (single isomer, unassigned) [Cpd 6BA, 2-[5-(-1-Methyl-5-oxo-pyrrolidin-2-yl)-pyridin-3-yl]-2,3-dihydro-benzo[1,4]dioxine-5-carboxylic acid amide] yielded an IC50 greater than 30 µM. With CN1C(=O)CCC1c1cncc(C2COc3c(cccc3C(N)=O)O2)c1 (single isomer, unassigned) [Cpd 6BB, 2-[5-(-1-Methyl-5-oxo-pyrrolidin-2-yl)-pyridin-3-yl]-2,3-dihydro-benzo[1,4]dioxine-5-carboxylic acid amide] the IC50 was greater than 30 µM. Molecule CC(=O)N1CCC[C@@H](Oc2cncc(C3COc4c(cccc4C(N)=O)O3)c2)C1 (single isomer, unassigned) [Cpd 7A] has an IC50 greater than 30 µM. Work on CC(=O)N1CCC[C@@H](Oc2cncc(C3COc4c(cccc4C(N)=O)O3)c2)C1 (single isomer, unassigned) [Cpd 7B] yielded an IC50 of 19 µM. In the case of CS(=O)(=O)Cc1cncc(C2COc3c(cccc3C(N)=O)O2)c1 (single isomer, unassigned) [Cpd 8A, 2-(5-Methanesulfonylmethyl-pyridin-3-yl)-2,3-dihydro-benzo[1,4]dioxine-5-carboxylic acid amide], the IC50 is reported as greater than 30 µM. Molecule CS(=O)(=O)Cc1cncc(C2COc3c(cccc3C(N)=O)O2)c1 (single isomer, unassigned) [Cpd 8B, 2-(5-Methanesulfonylmethyl-pyridin-3-yl)-2,3-dihydro-benzo[1,4]dioxine-5-carboxylic acid amide] has an IC50 of 13 µM. In the case of NC(=O)c1cccc2c1OCC(c1cncc(C(F)(F)F)c1)O2 (single isomer, unassigned) [Cpd 9A, 2-(5-Trifluoromethyl-pyridin-3-yl)-2,3-dihydro-benzo[1,4]dioxine-5-carboxylic acid amide], the IC50 is reported as 5.2 µM. Work on NC(=O)c1cccc2c1OCC(c1cncc(C(F)(F)F)c1)O2 (single isomer, unassigned) [Cpd 9B, 2-(5-Trifluoromethyl-pyridin-3-yl)-2,3-dihydro-benzo[1,4]dioxine-5-carboxylic acid amide] yielded an IC50 of 2.2 µM. NC(=O)c1cccc2c1OCC(c1cncc(C3CCOCC3)c1)O2 (single isomer, unassigned) [Cpd 10A, 2-[5-(Tetrahydro-pyran-4-yl)-pyridin-3-yl]-2,3-dihydro-benzo[1,4]dioxine-5-carboxylic acid amide] gave an IC50 of 3.4 µM. For NC(=O)c1cccc2c1OCC(c1cncc(C3CCOCC3)c1)O2 (single isomer, unassigned) [Cpd 10B, 2-[5-(Tetrahydro-pyran-4-yl)-pyridin-3-yl]-2,3-dihydro-benzo[1,4]dioxine-5-carboxylic acid amide], the IC50 was 0.23 µM. For NC(=O)c1cccc2c1OCC(c1cncc(C3(O)CCCCC3)c1)O2 (single isomer, unassigned) [Cpd 11A, 2-[5-(1-Hydroxy-cyclohexyl)-pyridin-3-yl]-2,3-dihydro-benzo[1,4]dioxine-5-carboxylic acid amide], the IC50 was 24 µM. With NC(=O)c1cccc2c1OCC(c1cncc(C3(O)CCCCC3)c1)O2 (single isomer, unassigned) [Cpd 11B, 2-[5-(1-Hydroxy-cyclohexyl)-pyridin-3-yl]-2,3-dihydro-benzo[1,4]dioxine-5-carboxylic acid amide] the IC50 was 4.4 µM. CC(=O)N1CCC(Oc2cncc(C3COc4c(cccc4C(N)=O)O3)c2)CC1 (single isomer, unassigned) [Cpd 12A, 2-[5-(1-Acetyl-piperidin-4-yloxy)-pyridin-3-yl]-2,3-dihydro-benzo[1,4]dioxine-5-carboxylic acid amide] gave an IC50 of 18 µM. CC(=O)N1CCC(Oc2cncc(C3COc4c(cccc4C(N)=O)O3)c2)CC1 (single isomer, unassigned) [Cpd 12B, 2-[5-(1-Acetyl-piperidin-4-yloxy)-pyridin-3-yl]-2,3-dihydro-benzo[1,4]dioxine-5-carboxylic acid amide] gave an IC50 of 2 µM.

Source: patent US9745289B2, “Aldosterone synthase inhibitors” (Boehringer Ingelheim International GmbH, priority 2014, dated 2017)
